Values after ≈ are worked out from the molar mass of the structure shown.
Tests used:
[1] = Oral bioavailability in CD1 mouse; type: ADME, organism-based; conditions: in vivo
[2] = AUC in CD1 mouse at 10 mg/kg, po; type: ADME, organism-based; set-up: dose 10 mg/kg, route oral; conditions: plasma
[3] = Aqueous solubility at pH 7 at room temperature; type: physicochemical; conditions: buffer
[4] = Clearance in Beagle dog at […], iv; type: ADME, organism-based, Canis lupus familiaris; set-up: dose 2.5 mg/kg, route intravenous; conditions: in vivo
[5] = AUC in Beagle dog at […], po; type: ADME, organism-based, Canis lupus familiaris; set-up: dose 2.5 mg/kg, route oral; conditions: plasma
[6] = Volume of distribution in Beagle dog at […]; type: ADME, organism-based, Canis lupus familiaris; set-up: dose 2.5 mg/kg; conditions: in vivo, read-out: Vdss
[7] = Lipophilicity, log D at pH 7.4; type: physicochemical; conditions: buffer
[8] = AUC in Sprague-Dawley rat at 5 mg/kg, po; type: ADME, organism-based; set-up: dose 5 mg/kg, route oral; conditions: plasma
[9] = Volume of distribution in Sprague-Dawley rat at 5 mg/kg, iv; type: ADME, organism-based; set-up: dose 5 mg/kg, route intravenous; conditions: in vivo, read-out: Vdss
[10] = Oral bioavailability in cynomolgus monkey at […], po; type: ADME, organism-based, Macaca fascicularis; conditions: in vivo
[11] = Half life in Sprague-Dawley rat at 5 mg/kg, iv; type: ADME, organism-based; set-up: dose 5 mg/kg, route intravenous; conditions: in vivo
[12] = Oral bioavailability in Beagle dog at […], po; type: ADME, organism-based, Canis lupus familiaris; conditions: in vivo
[13] = Volume of distribution in cynomolgus monkey at […], iv; type: ADME, organism-based, Macaca fascicularis; set-up: dose 2.5 mg/kg, route intravenous; conditions: in vivo, read-out: Vdss
[14] = Stability in dog hepatocyte assessed as metabolic turnover after 6 hrs; type: ADME, cell-based, Canis lupus familiaris; conditions: hepatocytes
[15] = Stability in mouse hepatocyte assessed as metabolic turnover after 6 hrs; type: ADME, cell-based; conditions: hepatocytes
[16] = Half life in cynomolgus monkey at […], iv; type: ADME, organism-based, Macaca fascicularis; set-up: dose 2.5 mg/kg, route intravenous; conditions: in vivo
[17] = Clearance in cynomolgus monkey at […], iv; type: ADME, organism-based, Macaca fascicularis; set-up: dose 2.5 mg/kg, route intravenous; conditions: in vivo
[18] = Oral bioavailability n Sprague-Dawley rat at 5 mg/kg, po; type: ADME, organism-based; conditions: in vivo
[19] = AUC in cynomolgus monkey at […], po; type: ADME, organism-based, Macaca fascicularis; set-up: dose 2.5 mg/kg, route oral; conditions: plasma
[20] = Stability in human hepatocyte assessed as metabolic turnover after 6 hrs; type: ADME, cell-based; conditions: hepatocytes, read-out: Stability
[21] = Clearance in Sprague-Dawley rat at 5 mg/kg, iv; conditions: in vivo
[22] = Half life in Beagle dog at […], iv; type: ADME, organism-based, Canis lupus familiaris; set-up: dose 2.5 mg/kg, route intravenous; conditions: in vivo
[23] = Stability in monkey hepatocyte assessed as metabolic turnover after 6 hrs; type: ADME, cell-based, Macaca mulatta; conditions: rhesus monkey, hepatocytes

SMILES: Cc1cccc(NC(=O)Nc2ccc(-c3cccc4[nH]nc(N)c34)cc2)c1
- bioavailability [1]: 38%
- AUC [2]: 6.5 µM·h

SMILES: Cc1cccc(NC(=O)Nc2ccc(-c3ccc(OCCN4CCOCC4)c4[nH]nc(N)c34)cc2)c1
- bioavailability [1]: 20%
- AUC [2]: 1 µM·h

SMILES: Cc1cc(NC(=O)Nc2ccc(-c3cccc4[nH]nc(N)c34)cc2)ccc1F
- bioavailability [1]: 66%
- AUC [2]: 10.9 µM·h

SMILES: Cc1cccc(NC(=O)Nc2ccc(-c3cccc4c3c(N)nn4C)cc2)c1
- bioavailability [1]: 89%
- AUC [2]: 19.8 µM·h

SMILES: Cc1ccc(F)c(NC(=O)Nc2ccc(-c3cccc4[nH]nc(N)c34)cc2)c1 [LINIFANIB]
- bioavailability [1]: 100%
- Solubility [3]: 27 ng/mL (≈ 0.0719 µM)
- clearance [4]: 7.2 mL/min/kg
- AUC [5]: 1500 ng·h/mL
- Vd [6]: 1.2 L/kg
- logD [7]: 4.2
- AUC [2]: 24.5 µM·h
- AUC [8]: 6800 ng·h/mL
- Vd [9]: 1.1 L/kg
- bioavailability [10]: 10.6%
- half-life [11]: 216 min
- bioavailability [12]: 47%
- Vd [13]: 2.2 L/kg
- parent remaining at 6 h [14]: 91%
- parent remaining at 6 h [15]: 91%
- half-life [16]: 186 min
- clearance [17]: 8.2 mL/min/kg
- bioavailability [18]: 27%
- AUC [19]: 600 ng·h/mL
- metabolised at 6 h [20]: 91%
- clearance [21]: 3.3 mL/min/kg
- half-life [22]: 120 min
- parent remaining at 6 h [23]: 91%

SMILES: Nc1n[nH]c2cccc(-c3ccc(NC(=O)Nc4cccc(Cl)c4)cc3)c12
- bioavailability [1]: 50%
- AUC [2]: 15 µM·h
